Data from US20170190671A1, “BIS(ARYL)CATECHOL DERIVATIVES AS HERBICIDES” (E I DU PONT DE NEMOURS AND COMPANY, priority 2014, published 2017).

Legend:
[1] = system: blackgrass (Alopecurus myosuroides); test: Test A postemergence; format: in vivo; settings: Alopecurus myosuroides, post-emergence, 240 h, 0 to 100 scale, read-out: Plant response rating, Blackgrass; for pest or weed control at 31 g/ha: 31 g ai/ha; for pest or weed control at 125 g/ha: 125 g ai/ha
How it was run: (§1)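 Scoring: eye-based comparison with untreated controls, 0 for no effect through 100 for complete control, at about day 10. Treatments: directed soil spray preemergence; foliar spray postemergence on 2–10 cm plants at the one- to two-leaf stage. Medium: loam soil with sand.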

[2] = system: barnyardgrass (Echinochloa crus-galli); test: Test A postemergence; format: in vivo; settings: Echinochloa crus-galli, post-emergence, 240 h, 0 to 100 scale, read-out: Plant response rating, Barnyardgrass; for pest or weed control at 31 g/ha: 31 g ai/ha; for pest or weed control at 125 g/ha: 125 g ai/ha
How it was run: as §1

[3] = system: galium (catchweed bedstraw, Galium aparine); test: Test A postemergence; format: in vivo; settings: Galium, post-emergence, 240 h, 0 to 100 scale, read-out: Plant response rating, Galium; for pest or weed control at 31 g/ha: 31 g ai/ha; for pest or weed control at 125 g/ha: 125 g ai/ha
How it was run: as §1

[4] = system: corn (Zea mays); test: Test A postemergence; format: in vivo; settings: Zea mays, post-emergence, 240 h, 0 to 100 scale; for Corn plant response rating (crop injury, 0 = no effect, 100 = complete kill) at 31 g/ha: 31 g ai/ha; for Corn plant response rating (crop injury, 0 = no effect, 100 = complete kill) at 125 g/ha: 125 g ai/ha
How it was run: as §1

[5] = system: giant foxtail (Setaria faberii); test: Test A postemergence; format: in vivo; settings: Setaria faberi, post-emergence, 240 h, 0 to 100 scale, read-out: Plant response rating, Foxtail, Giant; for pest or weed control at 31 g/ha: 31 g ai/ha; for pest or weed control at 125 g/ha: 125 g ai/ha
How it was run: as §1

[6] = system: kochia (Kochia scoparia); test: Test A postemergence; format: in vivo; settings: Bassia scoparia, post-emergence, 240 h, 0 to 100 scale, read-out: Plant response rating, Kochia; for pest or weed control at 31 g/ha: 31 g ai/ha; for pest or weed control at 125 g/ha: 125 g ai/ha
How it was run: as §1

[7] = system: Italian ryegrass (Lolium multiflorum); test: Test A postemergence; format: in vivo; settings: Lolium multiflorum, post-emergence, 240 h, 0 to 100 scale, read-out: Plant response rating, Ryegrass, Italian; for pest or weed control at 31 g/ha: 31 g ai/ha; for pest or weed control at 125 g/ha: 125 g ai/ha
How it was run: as §1

[8] = system: wheat (Triticum aestivum); test: Test A postemergence; format: in vivo; settings: Triticum aestivum, post-emergence, 240 h, 0 to 100 scale, read-out: Plant response rating, Wheat; for plant injury at 31 g/ha: 31 g ai/ha; for plant injury at 125 g/ha: 125 g ai/ha
How it was run: as §1

[9] = system: pigweed (Amaranthus retroflexus); test: Test A postemergence; format: in vivo; settings: Amaranthus retroflexus, post-emergence, 240 h, 0 to 100 scale, read-out: Plant response rating, Pigweed; for pest or weed control at 31 g/ha: 31 g ai/ha; for pest or weed control at 125 g/ha: 125 g ai/ha
How it was run: as §1

[10] = system: ragweed (common ragweed, Ambrosia elatior); test: Test A postemergence; format: in vivo; settings: Ambrosia artemisiifolia, post-emergence, 240 h, 0 to 100 scale, read-out: Plant response rating, Ragweed; for pest or weed control at 31 g/ha: 31 g ai/ha; for pest or weed control at 125 g/ha: 125 g ai/ha
How it was run: as §1

[11] = system: rice (Oryza sativa); test: Test B flooded paddy; format: in vivo; settings: Oryza sativa, 336 h; 250 g ai/ha, Flood, 13 to 15 days, scale 0 (no effect) to 100 (complete control); read-out: Plant response rating, Rice
How it was run: (§2)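 Under a constant 3 cm flood, test compounds went directly into the paddy water. Following 13 to 15 days of greenhouse growth, treated species and controls were compared by eye.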

[12] = system: barnyardgrass (Echinochloa crus-galli); test: Test B flooded paddy; format: in vivo; settings: Echinochloa crus-galli, 336 h; 250 g ai/ha, Flood, 13 to 15 days, scale 0 (no effect) to 100 (complete control); read-out: Plant response rating, Barnyardgrass
How it was run: as §2

[13] = system: sedge, umbrella (small-flower umbrella sedge, Cyperus difformis); test: Test B flooded paddy; format: in vivo; settings: Cyperus difformis, 336 h; 250 g ai/ha, Flood, 13 to 15 days, scale 0 (no effect) to 100 (complete control); read-out: Plant response rating, Sedge, Umbrella
How it was run: as §2

[14] = system: ducksalad (Heteranthera limosa); test: Test B flooded paddy; format: in vivo; settings: Heteranthera limosa, 336 h; 250 g ai/ha, Flood, 13 to 15 days, scale 0 (no effect) to 100 (complete control); read-out: Plant response rating, Ducksalad
How it was run: as §2

[15] = system: barnyardgrass (Echinochloa crus-galli); test: Test A preemergence; format: in vivo; settings: Echinochloa crus-galli, pre-emergence, 240 h, 0 to 100 scale (0 no effect, 100 complete control), read-out: Barnyardgrass plant response rating; for pest or weed control at 31 g/ha: 31 g ai/ha; for pest or weed control at 125 g/ha: 125 g ai/ha
How it was run: as §1

[16] = system: giant foxtail (Setaria faberii); test: Test A preemergence; format: in vivo; settings: Setaria faberi, pre-emergence, 240 h, 0 to 100 scale (0 no effect, 100 complete control), read-out: Foxtail, Giant plant response rating; for pest or weed control at 31 g/ha: 31 g ai/ha; for pest or weed control at 125 g/ha: 125 g ai/ha
How it was run: as §1

[17] = system: kochia (Kochia scoparia); test: Test A preemergence; format: in vivo; settings: Bassia scoparia, pre-emergence, 240 h, 0 to 100 scale (0 no effect, 100 complete control), read-out: Kochia plant response rating; for pest or weed control at 31 g/ha: 31 g ai/ha; for pest or weed control at 125 g/ha: 125 g ai/ha
How it was run: as §1

[18] = system: Italian ryegrass (Lolium multiflorum); test: Test A preemergence; format: in vivo; settings: Lolium multiflorum, pre-emergence, 240 h, 0 to 100 scale (0 no effect, 100 complete control), read-out: Ryegrass, Italian plant response rating; for pest or weed control at 31 g/ha: 31 g ai/ha; for pest or weed control at 125 g/ha: 125 g ai/ha
How it was run: as §1

[19] = system: pigweed (Amaranthus retroflexus); test: Test A preemergence; format: in vivo; settings: Amaranthus retroflexus, pre-emergence, 240 h, 0 to 100 scale (0 no effect, 100 complete control), read-out: Pigweed plant response rating; for pest or weed control at 31 g/ha: 31 g ai/ha; for pest or weed control at 125 g/ha: 125 g ai/ha
How it was run: as §1

[20] = system: ragweed (common ragweed, Ambrosia elatior); test: Test A preemergence; format: in vivo; settings: Ambrosia artemisiifolia, pre-emergence, 240 h, 0 to 100 scale (0 no effect, 100 complete control), read-out: Ragweed plant response rating; for pest or weed control at 31 g/ha: 31 g ai/ha; for pest or weed control at 125 g/ha: 125 g ai/ha
How it was run: as §1

`N#Cc1cccc(Oc2ncc(Cl)cn2)c1Oc1cccc(Cl)c1` [Compound 37] showed a pest or weed control at 31 g/ha [1] of 0%, a pest or weed control at 125 g/ha [1] of 0% and a pest or weed control at 31 g/ha [2] of 0%. For the same compound, the pest or weed control at 125 g/ha [2] was 0%, the pest or weed control at 31 g/ha [3] was 0% and the pest or weed control at 125 g/ha [3] was 0%. For the same compound, the Corn plant response rating (crop injury, 0 = no effect, 100 = complete kill) at 31 g/ha [4] was 0%, the Corn plant response rating (crop injury, 0 = no effect, 100 = complete kill) at 125 g/ha [4] was 0% and the pest or weed control at 31 g/ha [5] was 0%. It also gave a pest or weed control at 125 g/ha [5] of 0%, a pest or weed control at 31 g/ha [6] of 0% and a pest or weed control at 125 g/ha [6] of 0%. The pest or weed control at 31 g/ha [7] was 0%, the pest or weed control at 125 g/ha [7] was 0% and the plant injury at 31 g/ha [8] was 0%. The plant injury at 125 g/ha [8] was 0%, the pest or weed control at 31 g/ha [9] was 0% and the pest or weed control at 125 g/ha [9] was 0%. The pest or weed control at 31 g/ha [10] was 0%, the pest or weed control at 125 g/ha [10] was 0% and the melting point was 122 to 126 °C. For the same compound, the plant injury at 250 g/ha [11] was 0%, the pest or weed control at 250 g/ha [12] was 0% and the pest or weed control at 250 g/ha [13] was 0%. The pest or weed control at 250 g/ha [14] was 0%, the pest or weed control at 31 g/ha [15] was 0% and the pest or weed control at 125 g/ha [15] was 0%. It also gave a pest or weed control at 31 g/ha [16] of 0%, a pest or weed control at 125 g/ha [16] of 0% and a pest or weed control at 31 g/ha [17] of 0%. It also gave a pest or weed control at 125 g/ha [17] of 0%, a pest or weed control at 31 g/ha [18] of 0% and a pest or weed control at 125 g/ha [18] of 0%. It also gave a pest or weed control at 31 g/ha [19] of 0%, a pest or weed control at 125 g/ha [19] of 0% and a pest or weed control at 31 g/ha [20] of 0%. It also gave a pest or weed control at 125 g/ha [20] of 0%.

For `N#Cc1cccc(Oc2ncc(Cl)cn2)c1Oc1ccccc1Cl` [Compound 40], the pest or weed control at 31 g/ha [1] was 0%, the pest or weed control at 125 g/ha [1] was 0% and the pest or weed control at 31 g/ha [2] was 0%. It also gave a pest or weed control at 125 g/ha [2] of 0%, a pest or weed control at 31 g/ha [3] of 0% and a pest or weed control at 125 g/ha [3] of 10%. For the same compound, the Corn plant response rating (crop injury, 0 = no effect, 100 = complete kill) at 31 g/ha [4] was 0%, the Corn plant response rating (crop injury, 0 = no effect, 100 = complete kill) at 125 g/ha [4] was 0% and the pest or weed control at 31 g/ha [5] was 0%. It also gave a pest or weed control at 125 g/ha [5] of 0%, a pest or weed control at 31 g/ha [6] of 0% and a pest or weed control at 125 g/ha [6] of 0%. It also gave a pest or weed control at 31 g/ha [7] of 0%, a pest or weed control at 125 g/ha [7] of 0% and a plant injury at 31 g/ha [8] of 0%. It also gave a plant injury at 125 g/ha [8] of 0%, a pest or weed control at 31 g/ha [9] of 0% and a pest or weed control at 125 g/ha [9] of 30%. It also gave a pest or weed control at 31 g/ha [10] of 0%, a pest or weed control at 125 g/ha [10] of 0% and a melting point of 120 to 123 °C. The plant injury at 250 g/ha [11] was 0%, the pest or weed control at 250 g/ha [12] was 0% and the pest or weed control at 250 g/ha [13] was 0%. The pest or weed control at 250 g/ha [14] was 0%, the pest or weed control at 31 g/ha [15] was 0% and the pest or weed control at 125 g/ha [15] was 0%. The pest or weed control at 31 g/ha [16] was 0%, the pest or weed control at 125 g/ha [16] was 0% and the pest or weed control at 31 g/ha [17] was 0%. It also gave a pest or weed control at 125 g/ha [17] of 0%, a pest or weed control at 31 g/ha [18] of 0% and a pest or weed control at 125 g/ha [18] of 0%. It also gave a pest or weed control at 31 g/ha [19] of 0%, a pest or weed control at 125 g/ha [19] of 0% and a pest or weed control at 31 g/ha [20] of 0%. It also gave a pest or weed control at 125 g/ha [20] of 0%.
